Measurements from patent publication US20070112042A1, “Topical agent for application to the skin prior to luminous treatment” (priority 2003, published 2007).

Test system: dermal collagen production
Details: topical Niacin plus 585 nm pulsed dye laser irradiation versus irradiation alone
Source text: Tests have been carried out for studying the dermal collagen production following topical application of Niacin prior to irradiation with a 585 nm pulsed dye laser.

With `O=C(O)c1cccnc1` [Niacin, nicotinic acid] the “PIIINP levels (biochemical analysis)” value was “increase in the PIIINP levels above that of irradiation alone”.
